Experimental data reported in US20120172401A1, “BENZIMIDAZOLE DERIVATIVE AND USE AS ANGIOTENSIN II ANTAGONIST” (Takeda Pharmaceutical Company Limited, priority 2005, published 2012).
≈ marks a conversion by molar mass, not a printed value. Read-outs that look alike come from different tables or passages of the source.

Legend:
[1] = Heat stability of Form A crystal; assay type: physicochemical; conditions: in words
[2] = Membrane permeability by Parallel Artificial Membrane Permeability Assay (PAMPA); assay type: in vitro ADME; conditions: for Papp at 3 h, 50 gmol/L: PAMPA; for permeability in comparison with compound X: in words
Procedure: The permeability with the artificial membrane was determined by PAMPA under the following conditions. • lipid membrane: GIT mode (pION) • measurement wavelength: 250-400 nm • incubation time: 3 hrs • incubation temperature: 25° C. • Donor: […] 50 gmol/L

[3] = Solubility in JP1, JP2 and GCDC/JP2; assay type: physicochemical; conditions: for solubility at 2 h: thermodynamic from solid, 37° C.; for solubility in comparison with compound X: in words
Procedure: About 2 mg of samples were suspended in 2 mL of JP1, JP2 and 20 mmol/L GCDC/JP2. The suspension was equilibrated at 37° C. for 2 hrs and filtered. The concentration in the solutions was determined by HPLC under the following conditions.
• Detector: UV 254 nm • Column: CAPCELLPAK C18 MG 75×4.6 mm • Mobile Phase A: 0.05 mol/L ammonium formate buffer (pH 3)/MeCN=9:1 • Mobile Phase B: 0.05 mol/L ammonium formate buffer (pH 3)/MeCN=1:9 • Gradient Program: 0→10 min 0→100% B) • 10→15 min 100% B) • 15.1→20 min 0% B) • Column Temp.: 40° C. • Flow Rate: 1 mL/min • Injection vol.: 10 gL

[4] = tested on: Angiotensin II (AII)-induced vasopressor action; assay: Inhibitory effect on angiotensin II (AII)-induced vasopressor action in rat; assay type: in vivo; conditions: male SD rats, AII 100 ng/kg i.v., p.o., mean±SEM
Procedure: 11-Week-old male SD rats (JCL: SD, CLEA Japan, Inc.) were anesthetized with pentobarbital (50 mg/kg, i.p.), the femoral artery and femoral vein were isolated, and a polyethylene tube filled with physiological saline containing heparin (200 U/mL) was placed therein. The catheter was subcutaneously fixed in the back of the neck. After recovery period, the rats were subjected to the test.
The arterial catheter was connected to a pressure transducer (2238, NEC San-ei Instruments) and the signals were output on a pen recorder (RECTI-HORIZ 8K, NEC San-ei Instruments) via an amplifier for blood pressure. After the vasopressor action of AII (100 ng/kg, i.v.) was stabilized, a test compound in an equimolar dose to compound A was administered. After 24 hrs, AII was administered, an increase in the blood pressure was measured, and an inhibition rate relative to the value before drug administration was calculated. All compounds were suspended in 0.5% methylcellulose and orally administered at a volume of 2 mL/kg.
The results are shown as mean±SEM (Table 6). The significance between the compound (I) administration group and other compound administration group was determined by the Student's t test (**: p<0.01, *: p<0.05).

insulin sensitivity = assay: Enhancing effect on insulin sensitivity in rat (glucose clamp technique); assay type: in vivo; conditions: spontaneously hypertensive rats, p.o. for 2 weeks, average glucose injection rate 50-90 min, mean±SEM
Procedure: 24-Week-old male spontaneously hypertensive rats (SLC: SHR/Izm, Japan SLC, Inc.) were used. The body weight, systolic blood pressure, fasting blood glucose level, plasma insulin level and plasma triglyceride level of the rats were measured, and the rats were divided into a vehicle (0.5% methylcellulose solution) administration group and compound (I) (0.12, 0.37 and 1.23 mg/kg) administration groups using them as indices. Compound (I) was suspended in 0.5% methylcellulose solution and orally administered at a volume of 2 mL/kg for 2 weeks.
The insulin sensitivity was evaluated by the glucose clamp technique. To be specific, the rats after fasting overnight were anesthetized with pentobarbital sodium (Nembutal injection, Dainippon Pharmaceutical Co. Ltd., 50 mg/kg i.p.), and catheters (SP45, Natume Seisakusho Co., Ltd.) for blood sampling, insulin (novolin R/100, Novo Nordisk Pharma Co., Ltd.) infusion and glucose (Otsuka Glucose Injection 50%, Otsuka Pharmaceutical Co., Ltd.) infusion were each placed in the right common carotid artery, left femoral vein and right femoral vein. After single intravenous injection of 25 mU/kg of insulin, high insulin state was maintained by infusion using an infusion pump (KDS100, KDS) at an injection rate of 4 mU/kg/min. In addition, glucose in an amount necessary for maintaining the normal blood glucose level was intravenously infused using a different infusion pump (KDS100, KDS). Intravenous injection of glucose was started from 10 min after the start of the injection of insulin, and the glucose injection rate was changed after blood glucose measurement performed every 5 min. The blood glucose level then was quickly measured using a simple blood glucose measurement apparatus (ACCU-CHEK Comfort, Roche diagnostics). Glucose was infused for 90 min., the average value of the glucose injection rate was calculated for 40 min (from 50 min. to 90 min. after the start of the injection) and used as an index (M value) of insulin sensitivity.
The results are shown as mean±SEM (Table 7). […]

[5] = pH 5.5, GIT mode lipid membrane, 3 hrs, 25° C., read-out: PAMPA pH 5.5
[6] = pH 6.2, GIT mode lipid membrane, 3 hrs, 25° C., read-out: PAMPA PH 6.2
[7] = pH 7.4, GIT mode lipid membrane, 3 hrs, 25° C., read-out: PAMPA PH 7.4
[8] = pH 1.2, simulated gastric fluid, JP1, read-out: Solubility JP1
[9] = pH 6.8, fassgf or other biorelevant, 20 mmol/L GCDC/JP2, read-out: Solubility GCDC/JP2
[10] = pH 6.8, fassgf or other biorelevant, JP2, read-out: Solubility JP2

| SMILES | stability to heat [1] | Papp at 3 h, 50 gmol/L [2, 5] | Papp at 3 h, 50 gmol/L [2, 6] | Papp at 3 h, 50 gmol/L [2, 7] | solubility at 2 h [3, 8] | solubility at 2 h [3, 9] | solubility at 2 h [3, 10] | suppression rate at 24 hrs after administration ([4]; 0.12 mg/kg) | M value (insulin sensitivity; 0.12 mg/kg) | M value (insulin sensitivity; 0.37 mg/kg) | M value (insulin sensitivity; 1.23 mg/kg) | permeability in comparison with compound X [2] | solubility in comparison with compound X [3] | suppression rate at 24 hrs after administration ([4]; 0.10 mg/kg) | PAMPA PH 7.4 ([2]; pH 7.4, GIT mode lipid membrane, 3 hrs, 25° C.) |
| --- | --- | --- | --- | --- | --- | --- | --- | --- | --- | --- | --- | --- | --- | --- | --- |
| Cc1oc(=O)oc1COC(=O)c1cccc2nc(C3CC3)n(Cc3ccc(-c4ccccc4-c4noc(=O)[nH]4)cc3)c12 [Compound X, crystal of (5-methyl-2-oxo-1,3-dioxol-4-yl)methyl 2-cyclopropyl-1-{[2′-(5-oxo-4,5-dihydro-1,2,4-oxadiazol-3-yl)biphenyl-4-yl]methyl}-1H-benzimidazole-7-carboxylate] | stable to heat | 21 ×10⁻⁶ cm/s | 19 ×10⁻⁶ cm/s | 9.5 ×10⁻⁶ cm/s | 27 µg/mL (≈ 47.8 µM) | 52 µg/mL (≈ 92.1 µM) | 8.3 µg/mL (≈ 14.7 µM) | – | – | – | – | – | – | – | – |
| Cc1oc(=O)oc1COC(=O)c1cccc2nc(C3CC3)n(Cc3ccc(-c4ccccc4-c4noc(=O)[nH]4)cc3)c12 [Compound (I), (5-Methyl-2-oxo-1,3-dioxol-4-yl)methyl 2-cyclopropyl-1-{[2′-(5-oxo-4,5-dihydro-1,2,4-oxadiazol-3-yl)biphenyl-4-yl]methyl}-1H-benzimidazole-7-carboxylate] | – | – | – | – | – | – | – | 20.2% | 8.2 | 9.0 | 9.8 | – | – | – | – |
| COC(=O)c1cccc2nc(C3CC3)n(Cc3ccc(-c4ccccc4-c4noc(=O)[nH]4)cc3)c12 [Compound B, methyl 2-cyclopropyl-1-{[2′-(5-oxo-4,5-dihydro-1,2,4-oxadiazol-3-yl)biphenyl-4-yl]methyl}-1H-benzimidazole-7-carboxylate] | – | 46 ×10⁻⁶ cm/s | 20 ×10⁻⁶ cm/s | 8.9 ×10⁻⁶ cm/s | 160 µg/mL (≈ 343 µM) | 27 µg/mL (≈ 57.9 µM) | 2.8 µg/mL (≈ 6 µM) | – | – | – | – | permeable | less soluble | 2.6% | – |
| O=C(O)c1cccc2nc(C3CC3)n(Cc3ccc(-c4ccccc4-c4noc(=O)[nH]4)cc3)c12 [Compound A, 2-cyclopropyl-1-{[2′-(5-oxo-4,5-dihydro-1,2,4-oxadiazol-3-yl)biphenyl-4-yl]methyl}-1H-benzimidazole-7-carboxylic acid] | – | 13 ×10⁻⁶ cm/s | 0.63 ×10⁻⁶ cm/s | – | 130 µg/mL (≈ 287 µM) | 680 µg/mL (≈ 1500 µM) | 470 µg/mL (≈ 1040 µM) | – | – | – | – | less permeable | soluble | −6.0% | 0 ×10⁻⁶ cm/s |
